Assays:
[1] = species on record: Homo sapiens; test: Selectivity ratio of Ki for human CB1 to Ki for human CB2
[2] = molecular target: Cannabinoid receptor 1 (Homo sapiens, UniProt P21554); test: Displacement of [3H]CP 55940 from human CB1 receptor in cell free system
[3] = molecular target: Cannabinoid receptor 2 (Homo sapiens, UniProt P34972); test: Displacement of [3H]CP 55940 from human CB2 receptor in cell free system
Cannabinoid receptor 2, sequence (P34972 whole entry): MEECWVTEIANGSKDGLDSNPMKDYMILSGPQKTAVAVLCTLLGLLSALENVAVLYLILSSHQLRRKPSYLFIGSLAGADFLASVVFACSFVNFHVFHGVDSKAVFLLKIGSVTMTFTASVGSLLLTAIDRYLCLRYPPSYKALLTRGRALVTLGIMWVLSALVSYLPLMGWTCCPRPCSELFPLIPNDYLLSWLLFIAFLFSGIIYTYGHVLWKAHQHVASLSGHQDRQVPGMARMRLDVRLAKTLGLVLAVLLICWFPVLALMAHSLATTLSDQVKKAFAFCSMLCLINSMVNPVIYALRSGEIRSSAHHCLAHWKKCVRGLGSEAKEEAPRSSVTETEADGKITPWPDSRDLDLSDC

Cannabinoid receptor 1, sequence (P21554 whole entry): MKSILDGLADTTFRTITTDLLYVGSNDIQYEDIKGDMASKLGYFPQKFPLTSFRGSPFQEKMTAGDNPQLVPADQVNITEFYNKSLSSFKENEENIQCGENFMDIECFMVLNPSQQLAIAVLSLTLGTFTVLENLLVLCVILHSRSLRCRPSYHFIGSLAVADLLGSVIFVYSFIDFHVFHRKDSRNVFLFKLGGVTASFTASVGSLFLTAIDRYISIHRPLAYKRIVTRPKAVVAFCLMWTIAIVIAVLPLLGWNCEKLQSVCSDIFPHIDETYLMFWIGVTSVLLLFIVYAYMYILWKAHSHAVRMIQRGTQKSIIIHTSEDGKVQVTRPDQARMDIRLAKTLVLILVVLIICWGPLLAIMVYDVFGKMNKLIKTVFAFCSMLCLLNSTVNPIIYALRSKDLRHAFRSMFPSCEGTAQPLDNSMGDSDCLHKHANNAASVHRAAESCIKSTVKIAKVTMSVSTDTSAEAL

Compound | log(ratioKi) [1] | other results
Cc1ccc(C(=O)NC(C(C)(C)C)C(C)(C)C)cc1S(=O)(=O)N1CCOCC1 | 0.95 | –
CCCCCCC(C)(C)c1cc(OC)c2c(c1)OC(C)(C)[C@@H]1CC=C(C)C[C@@H]21 | 2.21 | Ki [2]: 1040 nM; Ki ([3]; read-out: Ki): 6.4 nM
Cc1nc(C(=O)NC23CC4CC(CC2C4)C3)c(C)n1-c1ccccc1 | 2.74 | Ki [2]: 5440 nM; Ki ([3]; read-out: Ki): 9.7 nM
CCCCCn1cc(C(=O)NC23CC4CC(CC(C4)C2)C3)c(=O)c2cc(Sc3ccccc3)ccc21 | 2.28 | –
CC1=CC[C@@H]2[C@@H](C1)c1c(O)cc(C3(C#N)CCCCC3)cc1OC2(C)C | 0.34 | –
Cc1ccc(-c2nc(CC(C)(C)C)cs2)cc1S(=O)(=O)N1CCOCC1 | 1.58 | –
CC1(C)C(C(=O)c2cn(C[C@@H]3CCCO3)c3ccccc23)C1(C)C | 1.82 | –
CCCCc1c(C(=O)NC23CC4CC(CC(C4)C2)C3)nc(C)n1-c1ccccc1 | 2.3 | –
CC1(C)C(C(=O)c2cn(CC3CCOCC3)c3cc(-c4ccccc4)ccc23)C1(C)C | 2.27 | Ki ([3]; read-out: Ki): 0.4 nM
Cc1ccc2c(C(=O)C3C(C)(C)C3(C)C)cn(CC3CCOCC3)c2c1 | – | Ki ([3]; read-out: Ki): 0.2 nM
Cc1c(C(C)(C)C)s/c(=N\C(=O)c2ccc(Br)cc2)n1CC1CC1 | 1.6 | Ki [2]: 53 nM; Ki ([3]; read-out: Ki): 1.2 nM
O=S(=O)(CCCC(F)(F)F)Oc1cccc(Oc2cccc3c2C[C@H](CO)C3)c1 | – | Ki ([3]; read-out: pKi (converted)): 4.27 nM
CCCCCn1cc(C(=O)NC23CC4CC(CC(C4)C2)C3)c(=O)c2cc(-c3cccs3)ccc21 | 3.68 | –
CCCCCCn1cc(C(=O)NC2CCCCC2)c(=O)c2ccc(C)nc21 | 1.07 | Ki [2]: 95 nM; Ki ([3]; read-out: Ki): 8 nM
CC1(C)C(C(=O)c2cn(CC3CCOCC3)c3c(COc4ccccc4)cccc23)C1(C)C | 0.98 | Ki [2]: 28 nM; Ki ([3]; read-out: Ki): 3 nM
COc1ccc2c(c1)c(C(=O)C1C(C)(C)C1(C)C)cn2CC1CCOCC1 | 2 | –
COc1ccc(OC)c2c(=O)c(C(=O)NC34CC5CC(CC(C5)C3)C4)c[nH]c12 | 1.6 | Ki [2]: 2100 nM; Ki ([3]; read-out: Ki): 52.6 nM
CCCCCOc1c(OC)ccc2cc(C(=O)NCc3ccc4c(c3)OCO4)c(=O)[nH]c12 | – | Ki [2]: 2370 nM
Cc1c(C(=O)NC2CCCCC2)nn(-c2ccc(Cl)c(Cl)c2)c1-n1cccc1 | 0.52 | –
Cc1c(Cl)ccc2c(=O)c(C(=O)NC34CC5CC(CC(C5)C3)C4)c[nH]c12 | 2.59 | Ki [2]: > 10000 nM; Ki ([3]; read-out: Ki): 25.5 nM
CC1=CC[C@@H]2[C@@H](C1)c1c(O)cc(C(C)(C)C3CCCCCC3)cc1OC2(C)C | 0.63 | –
CCCCCCC1(c2cc(O)c3c(c2)OC(C)(C)[C@@H]2CC=C(C)C[C@@H]32)CC1 | 0.07 | Ki [2]: 1 nM; Ki ([3]; read-out: Ki): 0.9 nM
CCCCCn1cc(C(=O)NC2C(C)(C)[C@@H]3CC[C@@]2(C)C3)c(=O)c2cc(-c3ccco3)ccc21 (stereo partly specified) | 2.3 | Ki [2]: 480 nM; Ki ([3]; read-out: Ki): 2.4 nM
CCC(C)(C)C(=O)Cc1cc(C)c(C)c(S(=O)(=O)N2CCCCCC2)c1 | 2.3 | Ki [2]: 1800 nM; Ki ([3]; read-out: Ki): 9 nM
N#Cc1c(Oc2cccc(OS(=O)(=O)CCCC(F)(F)F)c2)cccc1C(F)(F)F | 0.03 | Ki [2]: 48.3 nM

Compound | log(ratioKi) [1] | other results
CCCCCn1cc(C(=O)NC23CC4CC(CC(C4)C2)C3)c(=O)c2cc(I)ccc21 | 2.01 | –
CCCCCn1cc(C(=O)NC2C3CC4CC(C3)CC2C4)c(=O)c2ccccc21 (stereo unspecified) | 2.16 | –
COCCn1cc(C(=O)C2C(C)(C)C2(C)C)c2ccccc21 | 2.35 | –
CCCCCn1cc(C(=O)NC23CC4CC(CC(C4)C2)C3)c(=O)c2cc(-c3cc(C)c(OC)c(C)c3)ccc21 | 1.38 | –
CCCCCCC1CCCc2c1cc1c(c2O)[C@@H]2CC(C)=CC[C@H]2C(C)(C)O1 (stereo partly specified) | 0.6 | Ki [2]: 22.3 nM; Ki ([3]; read-out: Ki): 5.4 nM
CCCCCn1cc(C(=O)NC23CC4CC(CC(C4)C2)C3)c(=O)c2cc(-c3ccco3)ccc21 | 4.15 | –
CCCCCn1cc(C(=O)NC23CC4CC(CC(C4)C2)C3)c(=O)c2cc(CCc3ccccc3)ccc21 | 2.27 | –
CCCCCn1cc(C(=O)NC23CC4CC(CC(C4)C2)C3)c(=O)c2cc(Br)ccc21 | 1.82 | –
CC1=CC[C@@H]2[C@@H](C1)c1c(O)cc(C3(C4CCCCC4)SCCS3)cc1OC2(C)C | 0.24 | –
Cc1nc(C(=O)NC23CC4CC(CC(C4)C2)C3)c(C)n1-c1ccccc1 | 3.2 | –
CCCCCn1cc(C(=O)NC23CC4CC(CC(C4)C2)C3)c(=O)c2cc(-c3ccccc3)ccc21 | 3.42 | –
C#CCn1cc(C(=O)NC23CC4CC(CC(C4)C2)C3)c(=O)c2cc(Br)ccc21 | 1.81 | –
COc1ccc(-c2oc3cc(OC)ccc3c2C(=O)c2ccc(C#N)cc2)cc1 | – | Ki ([3]; read-out: pKi (converted)): 14800 nM
CCc1nc(C(=O)NC23CC4CC(CC(C4)C2)C3)c(C)n1-c1ccccc1 | 3.41 | –
CCCCCn1cc(C(=O)NC23CC4CC(CC(C4)C2)C3)c(=O)c2cc(CC)ccc21 | 1.74 | –
CC1(Cc2ccccc2)COc2cc(C(=O)N3CCCCC3)ccc21 (stereo unspecified) | 1.37 | Ki [2]: > 10000 nM
CC1(C)C(C(=O)c2cn(CCN3CCOCC3)c3cccc(N)c23)C1(C)C | 2.05 | Ki [2]: 3500 nM
Cc1ccc(NC(=O)C(C)(C(F)(F)F)C(F)(F)F)cc1S(=O)(=O)N1CCOCC1 | 1.31 | –
CCCCCn1cc(C(=O)NC23CC4CC(CC(C4)C2)C3)c(=O)c2cc(-c3ccc(Cl)s3)ccc21 | 2.35 | –
CCCCCn1cc(C(=O)NC23CC4CC(CC(C4)C2)C3)c(=O)c2cc(-c3c(C)noc3C)ccc21 | – | Ki ([3]; read-out: pKi (converted)): 102 nM
CCCCCn1cc(C(=O)NC23CC4CC(CC(C4)C2)C3)c(=O)c2cc(-c3ccc(C#N)cc3)ccc21 | 2.38 | –
CCCCCn1cc(C(=O)NC23CC4CC(CC(C4)C2)C3)c(=O)c2cc(C(F)(F)F)ccc21 | 2.34 | –
COCCn1c(C)c(C)s/c1=N\C(=O)C1C(C)(C)C1(C)C | 2.62 | Ki ([3]; read-out: Ki): 0.64 nM
COCc1ccc2c(c1)c(C(=O)C1C(C)(C)C1(C)C)cn2CC1CCOCC1 | – | Ki ([3]; read-out: Ki): 25 nM
COc1ccc2c(c1)c(CCN1CCOCC1)c(C)n2C(=O)c1cccc(Cl)c1Cl | 2.21 | –

Compound | log(ratioKi) [1] | other results
CCCCCn1cc(C(=O)NC23CC4CC(CC(C4)C2)C3)c(=O)c2cc(-c3ccc(O)cc3)ccc21 | 3.38 | –
Cc1c(C(=O)NC2CCCCC2)nn(-c2ccc(Cl)c(Cl)c2)c1-n1c(C)ccc1C | 1.05 | –
CCCCCn1cc(C(=O)NC23CC4CC(CC(C4)C2)C3)c(=O)c2cc(-n3ccnc3)ccc21 | 3.1 | –
CC1=CC[C@@H]2[C@@H](C1)c1c(O)cc(-c3cccc4ccccc34)cc1OC2(C)C | 0.09 | –
CN1CCCCC1Cn1cc(C(=O)c2cc([N+](=O)[O-])ccc2I)c2ccccc21 (stereo unspecified) | 2.64 | –
CCCCCCNC(=O)c1cn(CCCCC)c2ccc(Br)cc2c1=O | – | Ki ([3]; read-out: pKi (converted)): 891 nM
CCCCCn1cc(C(=O)NC23CC4CC(CC(C4)C2)C3)c(=O)c2cc(-c3ccc(F)cc3F)ccc21 | 2.79 | –
O=C(c1cn(CC2CCOCC2)c2ccccc12)C1CCCC1 | 1.07 | –
CCCCCn1cc(C(=O)NC23CC4CC(CC(C4)C2)C3)c(=O)c2cc(C3CCCCC3)ccc21 | 3.14 | –
CCCCCn1c(C)c(C(=O)c2cccc3ccccc23)c2ccccc21 | 0.28 | –
Cc1ccc(-c2nc(CC3CCCCC3)cs2)cc1S(=O)(=O)N1CCOCC1 | 1.22 | –
CCCCC/C=C\C/C=C\C/C=C\C/C=C\CCCC(=O)N[C@H]1C[C@@H]1O | – | Ki ([3]; read-out: pKi (converted)): 191 nM
CCC(C)(C)C(=O)Nc1cc(CN2CCOCC2)c(C)cn1 | 2.19 | –
C#Cc1ccc2c(c1)c(=O)c(C(=O)NC13CC4CC(CC(C4)C1)C3)cn2CCCCC | 3.05 | –
C=CCCn1cc(C(=O)NC23CC4CC(CC(C4)C2)C3)c(=O)c2cc(-c3ccco3)ccc21 | 3.35 | –
CCCCCn1cc(C(=O)NC23CC4CC(CC(C4)C2)C3)c(=O)c2ccccc21 | 0.95 | –
COc1cccc2c(C(=O)C3C(C)(C)C3(C)C)cn(CC3CCOCC3)c12 | – | Ki ([3]; read-out: Ki): 0.1 nM
Cc1ccc(NC(=O)C2C(C)(C)C2(C)C)cc1S(=O)(=O)N1CCOCC1 | 2.16 | –
CCCC(C)(C)c1ccc2c(c1)OC(C)(C)[C@@H]1CC=C(C)C[C@@H]21 | 2.3 | –
CCCCCn1cc(C(=O)NC23CC4CC(CC(C4)C2)C3)c(=O)c2cc(C3=CCCCC3)ccc21 | 3.08 | –
CCCCCn1cc(C(=O)NC23CC4CC(CC(C4)C2)C3)c(=O)c2cc(-c3ccc(Cl)cc3)ccc21 | 3 | –
Cc1ccc(NC(=O)C2CCCCC2(C)C)cc1S(=O)(=O)N1CCOCC1 (stereo unspecified) | 1.85 | –
CC1(C)C(C(=O)c2cn(CC3CCOCC3)c3ccc(OCc4ccccc4)cc23)C1(C)C | 2.3 | Ki [2]: 234 nM
